Reference: patent US7262173B2, “Chemosensitizing with liposomes containing oligonucleotides” (Georgetown University, priority 1997, dated 2007)

Key:
[1] = Tissue distribution of raf ODN after i.v. injection; type: in vivo, Balb/c nu/nu mice; conditions: 30 mg/kg i.v., free ODN; data not shown
Description: FIG. 4: Tissue distribution profiles of LE-ATG-AS raf ODN (SEQ ID NO:1).
Male Balb/c nu/nu mice (Charles River, Raleigh, N.C., USA; 10–12 weeks old) were maintained in the Research Resources Facility of the Georgetown University according to accredited procedure, and fed purina chow and water ad libitum. […] At 5 min, 15 min, 30 min, 1 h, 2 h, 4 h, 8 h, 24 h and 48 h after injection, one animal in each group was bled from the retro-orbital sinus into heparinized tubes under anesthesia, and killed by cervical dislocation.
The extracts were loaded on to 20% polyacrylamide/3 M urea gels and electrophoresed in TBE buffer. […] The radiolabeled probe was generated by 5′-end-labeling of ATG-S′ raf ODN (SEQ ID NO:3) with γ^32-P-ATP using T4 polynucleotide kinase and purification over Chroma Spin-10 columns (Clontech, Palo Alto, Calif., and USA). […] The autoradiographs were scanned using a computer program (ImageQuant software, Molecular Dynamics, Sunnyvale, Calif., and USA), and the amounts of ATG-AS raf ODN (SEQ ID NO:1) in various samples were calculated by comparison to standards.

Raf-1 = Raf-1 expression in SQ-20B tumor xenografts after i.v. or intratumoral ODN; type: in vivo, human; conditions: intravenous treatment; compared with untreated controls
Description: FIG. 7: Effects of intravenous administration of LE-ATG-AS raf ODN (SEQ ID NO:1) our Raf-1 expression in normal and tumor tissues. Raf-1 expression was examined in liver, kidneys and SQ-20B tumor xenograft of Balb/c nu/nu mice after i.v. injections of 6 mg/kg daily dose of LE-ATG-AS raf ODN (SEQ ID NO:1) (AS) or LE-ATG-S raf ODN (SEQ ID NO:3) (S) for five consecutive days. Control mice (C) received normal saline. Representative data showing Raf-1 expression in lysates normalized for protein content by immunoprecipitation and immunoblotting (top). Quantification data are shown as mean±s.d. from three mice (bottom).
FIG. 8: Inhibition of Raf-1 protein expression in SQ-20B tumor xenografts by intratumoral administration of LE-ATG-AS raf ODN (SEQ ID NO:1): Each animal received intratumoral injections of LE-ATG-AS raf ODN (SEQ ID NO:1) (AS) on the right flank and LE-ATG-S raf ODN (SEQ ID NO:3) (S) on the left flank at a dose of 4 mg/kg daily for seven days as explained in the experimental procedures. […] Quantification data shown are mean±s.d., from three representative mice. […]
For in vivo expression studies, tumor tissue and organs were homogenized in the cell lysis buffer using Polytron homogenizer (Westbury, N.Y., USA). Raf-1 expression was analyzed in tissue homogenates by immunoprecipitation and immunoblotting as described above.

## 5′-GTG-CTCCATTGATGC-3′ (antisense GTGCTCCATTGATGC; DNA, linkages s1 o12 s1 (s phosphorothioate, o phosphodiester), methylation of C not given here) [ATG-AS raf ODN, antisense ODN to translation initiation site of human c-raf-1 cDNA; one terminal base linkage at each end phosphorothioate]
[1]
  only time at which intact ODN seen in various organs: 5 min
Raf-1
  effect on Raf-1 expression in tumor tissue: no effect
